{"source": "paper PMC4385927", "about": "(Cell Death & Disease, 2015)", "key": {"[1]": {"system": "global protein synthesis rates", "conditions": "mouse; cited from earlier work"}, "[2]": {"system": "AR42j rat pancreatic acinar cells", "assay_type": "cell-based"}, "[3]": {"system": "CHO cells expressing a luciferase reporter construct under control of the CHOP promoter", "test": "CHOP::luciferase assay", "assay_type": "cell-based", "conditions": "5 μg/ml tunicamycin 6 h; ISRIB 1 μM, GSK2606414 20 μM; n=9", "procedure": "AR42j cells were cultured in DMEM supplemented with 10% Fetal calf serum (FetalClone II, Thermo Scientific, Loughborough, UK), 2 mM l-glutamine, 1 × Penicillin/Streptomycin and 1 × non-essential amino-acid solution and were maintained at 37 °C with 5% CO2. CHO-KI CHOP::luciferase cells were cultured in DMEM/F12(Ham) (Gibco, Paisley, UK) supplemented with 10% Fetal calf serum, 2 mM L-glutamine and 1 × Penicillin/Streptomycin, and were maintained at 37 °C with 5% CO2.\nCHO::KI cells stably transfected with a CHOP::luciferase reporter[27] were plated at a density of 1 × 10^5 per well in a six-well plate and left to grow overnight. Cells were treated for 6 h with 5 μg/ml tunicamycin or vehicle only (100% DMSO) and then extracted using the Steady-Glo luciferase assay system (Promega) before being quantified using the Glomax 96 microplate luminometer (Promega). ISRIB and GSK2606414 were incubated with 5 μg/ml tunicamycin for 6 h at 1 or 20 μM, respectively, before assaying as above."}, "[4]": {"conditions": "mouse, in vivo"}, "[5]": {"conditions": "cited from earlier work"}, "[6]": {"test": "Solubility (statement)", "assay_type": "physicochemical"}, "[7]": {"test": "Plasma and brain concentration of trans-ISRIB by LC-MS/MS after single intraperitoneal injection", "assay_type": "in vivo", "conditions": "wild-type mice; for Brain mean ±S.D. / Plasma mean ±S.D.: n=3", "procedure": "We synthesized ISRIB as described,[22] and confirmed penetration of the blood–brain barrier and measured mean brain:plasma ratios at various doses in wild-type mice. Intra-peritoneal administration of 0.25 mg/kg of trans-ISRIB (henceforth termed simply ISRIB), as used by Sidrauski et al.[22] to enhance memory in mice, gave a favorable pharmacokinetic profile (Table 1), so this dose was used for treatment.\nBlood and brain tissue were collected 8 or 24 h after dosing from mice treated with one doses of 0.25, 2.5 or 5 mg/kg trans-ISRIB, or vehicle. Blood plasma (up 0.2 ml, exact volume measured) was diluted with water to 0.2 ml and extracted with 0.4 ml of chloroform/methanol 2 : 1. After vortex mixing (10 min) and centrifugation (10 000 g, 10 min), the lower layer was dried with vacuum centrifugation and reconstituted in 50 μl of methanol. Brain tissue (one complete half, about 0.25 g weighed exactly) was homogenized in 0.5 ml of chloroform/methanol 2 : 1 and further processed exactly as the plasma samples. ISRIB quantitative analysis (using external standards) was performed by LC-MS/MS using a 4000 QTRAP mass spectrometer (Applied Biosystems, Foster City, CA, USA) equipped with a turbo ion source and LC series 10 AD VP (Shimadzu). The mobile phase was a water/acetonitrile gradient modified with 0.1% formic acid using a Agilent Poroshell 120 SB-C18 2.1 × 50 mm^2 (2.7 μm), which was maintained at 40 °C. LC-MS/MS multiple reaction monitoring used a precursor ion of mass/charge ratio (m/z) 452 and a product ion of m/z 265 in positive electrospray ionization mode for trans-ISRIB. Data analysis was performed with Analyst 1.4.1 in the quantitative mode."}, "[8]": {"system": "eIF2α-P", "set-up": "species or system mice", "conditions": "mouse, in vivo, ip, 0.25 mg/kg"}, "[9]": {"system": "ATF4", "set-up": "species or system mice", "conditions": "mouse, in vivo, ip, 0.25 mg/kg"}, "[10]": {"system": "total PrP and PrP^Sc", "set-up": "species or system mice", "conditions": "mouse, in vivo"}, "[11]": {"system": "Rocky Mountain Laboratory (RML) prions", "assay_type": "in vivo, mice"}, "[12]": {"system": "global protein synthesis rates", "set-up": "species or system mice", "conditions": "mouse, in vivo, ip, 0.25 mg/kg"}, "[13]": {"conditions": "single i.p. dose 0.25 mg/kg, 8 h"}, "[14]": {"conditions": "single i.p. dose 0.25 mg/kg, 24 h"}, "[15]": {"conditions": "single i.p. dose 2.5 mg/kg, 8 h"}, "[16]": {"conditions": "single i.p. dose 2.5 mg/kg, 24 h"}, "[17]": {"conditions": "prion-infected mice, ISRIB 0.25 mg/kg i.p. daily from 7 w.p.i., vehicle 9/9"}}, "note": "Where two headings read alike, the source gives them in different places."}
{"smiles": "Cn1cc(-c2ccc3c(c2)CCN3C(=O)Cc2cccc(C(F)(F)F)c2)c2c(N)ncnc21", "note": "[GSK2606414, 7-methyl-5-(1-{[3-(trifluoromethyl)phenyl]acetyl}-2,3-dihydro-1H-indol-5-yl)-7H-p yrrolo[2,3-d]pyrimidin-4-amine]", "values": [{"measurement": "recovery of protein synthesis rates in vivo", "setting": "[1]", "value": "~ 100%"}, {"measurement": "protein synthesis (translation) rates restored in vitro, % of control levels", "setting": "[2]; thapsigargin-treated AR42j cells, Figures 6a and b", "value": 90, "unit": "%"}, {"measurement": "tunicamycin-induced CHOP induction (relative luminescence)", "setting": "[3]", "value": "completely inhibited"}, {"measurement": "reduction in pancreatic weight", "setting": "[4]; Tg37+/-, po, 50 mg/kg", "value": "~ 50%"}, {"measurement": "blood glucose levels", "setting": "[4]", "value": "mildly but significantly elevated"}, {"measurement": "pancreas histology (H&E sections)", "setting": "[4]", "value": "extensive destruction of exocrine acinar pancreatic tissue"}, {"measurement": "toxicity of GSK2606414 treatment in prion-diseased mice", "setting": "[5]", "value": "weight loss and mild hyperglycemia"}]}
{"smiles": "O=C(COc1ccc(Cl)cc1)N[C@H]1CC[C@H](NC(=O)COc2ccc(Cl)cc2)CC1", "note": "[ISRIB]", "values": [{"measurement": "solubility", "setting": "[6]", "value": "high insolubility"}, {"measurement": "Mean ratio brain: plasma", "setting": "[7]; [13]", "value": 0.54}, {"measurement": "Brain mean ±S.D.", "setting": "[7]; [13]", "value": "186.9 ± 46.8", "unit": "ng/g"}, {"measurement": "Plasma mean ±S.D.", "setting": "[7]; [13]", "value": "345.3 ± 44.7", "unit": "ng/mL"}, {"measurement": "Mean ratio brain: plasma", "setting": "[7]; [14]", "value": 1.62}, {"measurement": "Brain mean ±S.D.", "setting": "[7]; [14]", "value": "16.0 ± 1.6", "unit": "ng/g"}, {"measurement": "Plasma mean ±S.D.", "setting": "[7]; [14]", "value": "9.9 ± 1.0", "unit": "ng/mL"}, {"measurement": "Mean ratio brain: plasma", "setting": "[7]; [15]", "value": 0.35}, {"measurement": "Brain mean ±S.D.", "setting": "[7]; [15]", "value": "254.6 ± 70.3", "unit": "ng/g"}, {"measurement": "Plasma mean ±S.D.", "setting": "[7]; [15]", "value": "721.6 ± 60.1", "unit": "ng/mL"}, {"measurement": "Mean ratio brain: plasma", "setting": "[7]; [16]", "value": 0.9}, {"measurement": "Brain mean ±S.D.", "setting": "[7]; [16]", "value": "39.7 ± 12.6", "unit": "ng/g"}, {"measurement": "Plasma mean ±S.D.", "setting": "[7]; [16]", "value": "44.1 ± 11.6", "unit": "ng/mL"}, {"measurement": "Mean ratio brain: plasma", "setting": "[7]; single i.p. dose 5 mg/kg, 8 h", "value": 0.43}, {"measurement": "Brain mean ±S.D.", "setting": "[7]; single i.p. dose 5 mg/kg, 8 h", "value": "160.3 ± 17.6", "unit": "ng/g"}, {"measurement": "Plasma mean ±S.D.", "setting": "[7]; single i.p. dose 5 mg/kg, 8 h", "value": "369.7 ± 114.4", "unit": "ng/mL"}, {"measurement": "Mean ratio brain: plasma", "setting": "[7]; single i.p. dose 5 mg/kg, 24 h", "value": 0.91}, {"measurement": "Brain mean ±S.D.", "setting": "[7]; single i.p. dose 5 mg/kg, 24 h", "value": "64.6 ± 9.2", "unit": "ng/g"}, {"measurement": "Plasma mean ±S.D.", "setting": "[7]; single i.p. dose 5 mg/kg, 24 h", "value": "70.9 ± 30.6", "unit": "ng/mL"}, {"measurement": "protein synthesis (translation) rates restored in vitro, % of control levels", "setting": "[2]", "value": "~ 50%"}, {"measurement": "tunicamycin-induced CHOP induction (relative luminescence)", "setting": "[3]", "value": "only partially reduced"}, {"measurement": "eIF2α-P levels (hippocampus)", "setting": "[8]", "value": "unchanged"}, {"measurement": "levels of ATF4 (hippocampus)", "setting": "[9]", "value": "reduced levels of ATF4 markedly"}, {"measurement": "blood glucose levels", "setting": "[4]", "value": "unaffected"}, {"measurement": "loss of body weight at which animals had to be killed", "setting": "[4]", "value": 20, "unit": "%"}, {"measurement": "pancreas histology (H&E sections)", "setting": "[4]", "value": "histologically normal"}, {"measurement": "pancreatic weights", "setting": "[4]", "value": "normal"}, {"measurement": "levels of total PrP and PrP^Sc", "setting": "[10]", "value": "does not affect"}, {"measurement": "animals that developed confirmatory signs of prion disease by 12 w.p.i.", "setting": "[11]; clinical observation, vehicle 9/9", "value": "0/12"}, {"measurement": "survival in prion-infected mice", "setting": "[11]; n=12, vehicle 84±3 days (n=9), killed because of loss of 20% of body weight", "value": "96±4", "unit": "days post infection"}, {"measurement": "Confirmatory signs: Dragging of limbs (front/hind) (mice affected/total)", "setting": "[11]; prion-infected mice, ISRIB 0.25 mg/kg i.p. daily from 7 w.p.i., vehicle 2/9", "value": "0/12"}, {"measurement": "Confirmatory signs: Sustained hunched posture (mice affected/total)", "setting": "[11]; prion-infected mice, ISRIB 0.25 mg/kg i.p. daily from 7 w.p.i., vehicle 3/9", "value": "0/12"}, {"measurement": "Early indicator signs: Unsustained hunched posture (mice affected/total)", "setting": "[11]; prion-infected mice, ISRIB 0.25 mg/kg i.p. daily from 7 w.p.i., vehicle 4/9", "value": "0/12"}, {"measurement": "Confirmatory signs: Impairment of righting reflex (mice affected/total)", "setting": "[11]; prion-infected mice, ISRIB 0.25 mg/kg i.p. daily from 7 w.p.i., vehicle 5/9", "value": "0/12"}, {"measurement": "Early indicator signs: Hind limb clasping (mice affected/total)", "setting": "[11]; prion-infected mice, ISRIB 0.25 mg/kg i.p. daily from 7 w.p.i., vehicle 8/9", "value": "7/12"}, {"measurement": "Early indicator signs: Mild loss of coordination (mice affected/total)", "setting": "[11]; [17]", "value": "7/12"}, {"measurement": "Early indicator signs: Rigid tail (mice affected/total)", "setting": "[11]; [17]", "value": "7/12"}, {"measurement": "Scrapie incubation: Number of animals succumbing to prion disease", "setting": "[11]; [17]", "value": "0/12"}, {"measurement": "neuronal loss in the hippocampus (neuropathological examination, H&E)", "setting": "[11]; prion-infected mice, ISRIB vs vehicle", "value": "prevented neuronal loss"}, {"measurement": "global protein synthesis rates, % of levels seen in uninfected controls", "setting": "[12]", "value": "~ 70%"}]}
